Source: ChEMBL document CHEMBL1201862, “PubChem BioAssay data set” (2004)
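Protocol summary: plate cells (96-well), add compound at 5 concentrations, incubate 48 h, interpolate endpoints linearly. GI50: concentration for 50% inhibition of growth.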 Activity calls are given as the source filed them. No stated cut-off is given here; in the data, active = GI50 up to about 1.1 µM and inactive = higher.

How the values were obtained:
Assay in all cases: NCI tumour cell line growth inhibition, 48 h
A549 = test system: A549
K562 = test system: K562
HT-29 = test system: HT-29
SF-539 = test system: SF-539
Malme-3M = test system: Malme-3M
LOX IMVI = test system: LOX IMVI
SK-OV-3 = test system: SK-OV-3
SK-MEL-2 = test system: SK-MEL-2
OVCAR-8 = test system: OVCAR-8
SK-MEL-28 = test system: SK-MEL-28
SF-268 = test system: SF-268
NCI-H226 = test system: NCI-H226
HCT-15 = test system: HCT-15
SK-MEL-5 = test system: SK-MEL-5
HOP-62 = test system: HOP-62
TK-10 = test system: TK-10
A498 = test system: A498
OVCAR-5 = test system: OVCAR-5
HCC 2998 = test system: HCC 2998

Compound | GI50 (A549) | GI50 (K562) | GI50 (HT-29) | GI50 (SF-539) | GI50 (Malme-3M) | GI50 (LOX IMVI) | GI50 (SK-OV-3) | GI50 (SK-MEL-2) | GI50 (OVCAR-8) | GI50 (SK-MEL-28) | GI50 (SF-268) | GI50 (NCI-H226) | GI50 (HCT-15) [µM] | GI50 (SK-MEL-5) | GI50 (HOP-62) | GI50 (TK-10) | GI50 (A498) | GI50 (OVCAR-5) | GI50 (HCC 2998)
CC(C)C(O)(C(C)C)C(C)C | > 100 µM (inactive) | > 100 µM (inactive) | > 100 µM (inactive) | > 100 µM (inactive) | > 100 µM (inactive) | > 100 µM (inactive) | > 100 µM (inactive) | > 100 µM (inactive) | > 100 µM (inactive) | > 100 µM (inactive) | > 100 µM (inactive) | > 100 µM (inactive) | > 100 | > 100 µM (inactive) | > 100 µM (inactive) | > 100 µM (inactive) | > 100 µM (inactive) | > 100 µM (inactive) | –
COc1ccc(C2SC(=N)Nc3c2c(C)nn3C(=O)c2ccncc2)cc1OC (stereo unspecified) | > 10 µM (inactive) | > 10 µM (inactive) | > 10 µM (inactive) | > 10 µM (inactive) | > 10 µM (inactive) | > 10 µM (inactive) | > 10 µM (inactive) | > 10 µM (inactive) | > 10 µM (inactive) | > 10 µM (inactive) | > 10 µM (inactive) | > 10 µM (inactive) | > 10 | > 10 µM (inactive) | > 10 µM (inactive) | > 10 µM (inactive) | – | > 10 µM (inactive) | > 10 µM (inactive)
N#C/C(=C\c1cccc(Br)c1)c1nc2ccccc2c(=O)[nH]1 | > 100 µM (inactive) | > 100 µM (inactive) | > 100 µM (inactive) | 47.9 µM (inactive) | > 100 µM (inactive) | > 100 µM (inactive) | > 100 µM (inactive) | > 100 µM (inactive) | > 100 µM (inactive) | > 100 µM (inactive) | > 100 µM (inactive) | > 100 µM (inactive) | > 100 | > 100 µM (inactive) | 21.9 µM (inactive) | 42.1 µM (inactive) | – | > 100 µM (inactive) | > 100 µM (inactive)
C=CCN1C(=O)N/C(=C\c2ccc(Cl)cc2)C1=O | 83.9 µM (inactive) | > 100 µM (inactive) | > 100 µM (inactive) | > 100 µM (inactive) | > 100 µM (inactive) | > 100 µM (inactive) | > 100 µM (inactive) | – | > 100 µM (inactive) | > 100 µM (inactive) | > 100 µM (inactive) | > 100 µM (inactive) | > 100 | > 100 µM (inactive) | > 100 µM (inactive) | > 100 µM (inactive) | 22.6 µM (inactive) | > 100 µM (inactive) | –
CS(=O)(=O)NC12CCC(c3ccccc31)c1ccccc12 | > 100 µM (inactive) | > 100 µM (inactive) | > 100 µM (inactive) | > 100 µM (inactive) | > 100 µM (inactive) | > 100 µM (inactive) | > 100 µM (inactive) | > 100 µM (inactive) | – | > 100 µM (inactive) | > 100 µM (inactive) | > 100 µM (inactive) | > 100 | > 100 µM (inactive) | > 100 µM (inactive) | > 100 µM (inactive) | > 100 µM (inactive) | > 100 µM (inactive) | –
CNc1nc(N)nc(Nc2ccc(I)cc2)c1N=O | > 100 µM (inactive) | 68.2 µM (inactive) | 24 µM (inactive) | > 100 µM (inactive) | > 100 µM (inactive) | > 100 µM (inactive) | – | > 100 µM (inactive) | > 100 µM (inactive) | > 100 µM (inactive) | > 100 µM (inactive) | – | > 100 | 96.2 µM (inactive) | > 100 µM (inactive) | > 100 µM (inactive) | – | > 100 µM (inactive) | > 100 µM (inactive)
COC1CC2CCC(C)[C@](O)(O2)C(=O)C(=O)N2CCCCC2C(=O)OC(C(C)CC2CCC(O)C(OC)C2)CC(=O)C(C)C=C(C)C(OC(=O)CN(C)C)C(OC)C(=O)C(C)CC(C)/C=C/C=C/C=C\1C (stereo partly specified) | 11 µM (inactive) | < 0.01 µM (active) | 3.81 µM (inactive) | < 0.01 µM (active) | < 0.01 µM (active) | < 0.01 µM (active) | < 0.01 µM (active) | < 0.0419 µM (active) | 0.403 µM (active) | 0.973 µM (active) | 7.19 µM (inactive) | 10.3 µM (inactive) | 10.4 | 3.78 µM (inactive) | < 0.01 µM (active) | 11.6 µM (inactive) | < 0.01 µM (active) | 12.6 µM (inactive) | –
Cc1cc(S(=O)(=O)Nc2nc3ccccc3n2-c2ccccc2)c(S)cc1Cl | > 100 µM (inactive) | > 100 µM (inactive) | – | > 100 µM (inactive) | > 100 µM (inactive) | > 100 µM (inactive) | – | > 100 µM (inactive) | > 100 µM (inactive) | > 100 µM (inactive) | > 100 µM (inactive) | > 100 µM (inactive) | > 100 | 50.6 µM (inactive) | – | – | – | > 100 µM (inactive) | > 100 µM (inactive)
